Experimental data as given in patent publication US7585895B2, “Therapeutic substituted cyclopentanes” (Allergan, Inc., priority 2005, dated 2009).

How the values were obtained:
Type in all cases: cell-based
[1] = target: EP2 (Homo sapiens, UniProt P43116); assay: cAMP assay, HEK-EBNA cells expressing EP2; design: expressed in transfected cells; host or cells: HEK-EBNA; settings: value in parentheses in EP2 column, read-out: EP2 EC50 (nM), measurement of cAMP (data in parentheses)
Protocol: A 384-well drug plate was prepared to contain 6 test compounds, PGE2 and cAMP in 16 serial dilutions in triplicate, using a Biomek station. HEK-EBNA cells expressing a target PG receptor subtype (EP2 or EP4) were suspended in a stimulation buffer (HBSS, 0.1% BSA, 0.5 mM IBMX and 5 mM HEPES, pH 7.4) in a density of 10^4 cells/5 μl. The reaction was initiated by mixing 5 μL drug dilutions with 5 μl of HEK-EBNA cells in a well, carried out for 30 min at room temperature, and followed by the addition of 5 μl anti-cAMP acceptor beads in the control buffer with Tween-20 (25 mM NaCl, 0.03% Tween-20, 5 mM HEPES, pH7.4). After 30 min in the dark at room temperature, the mixtures were incubated with 15 μl biotinylated-cAMP/strepavidin donor beads in Lysis/Detection buffer (0.1% BSA, 0.3% Tween-20 and 5 mM HEPES, pH7.4) for 45 min at the room temperature. Fluorescence changes were read using a Fusion-alpha HT microplate reader.

[2] = target: T1, hFP (Homo sapiens, UniProt P43088); assay: FLIPR calcium signal, FP; settings: HEK-293(EBNA)
T1 construct: expressed in transfected cells
T1 sequence (P43088 whole entry): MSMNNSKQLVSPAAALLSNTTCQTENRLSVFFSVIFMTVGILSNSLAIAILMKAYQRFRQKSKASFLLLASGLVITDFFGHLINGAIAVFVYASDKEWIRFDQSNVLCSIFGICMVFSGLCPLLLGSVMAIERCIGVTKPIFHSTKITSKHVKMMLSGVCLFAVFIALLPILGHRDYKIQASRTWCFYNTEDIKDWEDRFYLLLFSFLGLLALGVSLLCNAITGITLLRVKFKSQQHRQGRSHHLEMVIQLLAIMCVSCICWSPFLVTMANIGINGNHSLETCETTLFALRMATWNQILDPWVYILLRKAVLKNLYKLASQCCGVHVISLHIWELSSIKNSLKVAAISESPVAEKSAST
Protocol: (§1) HEK-293(EBNA) cells, stably expressing one type or subtype of recombinant human prostaglandin receptors (prostaglandin receptors expressed: hDP/Gqs5; hEP1; hEP2/Gqs5; hEP3A/Gqi5; hEP4/Gqs5; hFP; hIP; hTP), were cultured in 100 mm culture dishes in high-glucose DMEM medium containing 10% fetal bovine serum, 2 mM 1-glutamine, 250 μg/ml geneticin (G418) and 200 μg/ml hygromycin B as selection markers, and 100 units/ml penicillin G, 100 μg/ml streptomycin and 0.25 μg/ml amphotericin B.
(§2) Cells were seeded at a density of 5×10^4 cells per well in Biocoat® Poly-D-lysine-coated black-wall, clear-bottom 96-well plates (Becton-Dickinson) and allowed to attach overnight in an incubator at 37° C. Cells were then washed two times with HBSS-HEPES buffer (Hanks Balanced Salt Solution without bicarbonate and phenol red, 20 mM HEPES, pH 7.4) using a Denley Cellwash plate washer (Labsystems). After 45 minutes of dye-loading in the dark, using the calcium-sensitive dye Fluo-4 AM at a final concentration of 2 μM, plates were washed four times with HBSS-HEPES buffer to remove excess dye leaving 100 μl in each well. Plates were re-equilibrated to 37° C. for a few minutes.
(§3) Cells were excited with an Argon laser at 488 nm, and emission was measured through a 510-570 nm bandwidth emission filter (FLIPR™, Molecular Devices, Sunnyvale, Calif.). Drug solution was added in a 50 μl volume to each well to give the desired final concentration. The peak increase in fluorescence intensity was recorded for each well. On each plate, four wells each served as negative (HBSS-HEPES buffer) and positive controls (standard agonists: BW245C (hDP); PGE2 (HEP1; hEP2/Gqs5; hEP3A/Gqi5; hEP4/Gqs5); PGF2α (hFP); carbacyclin (hIP); U-46619 (hTP), depending on receptor). The peak fluorescence change in each drug-containing well was then expressed relative to the controls.
(§4) Compounds were tested in a high-throughput (HTS) or concentration-response (CoRe) format. In the HTS format, forty-four compounds per plate were examined in duplicates at a concentration of 10^−5 M. To generate concentration-response curves, four compounds per plate were tested in duplicates in a concentration range between 10^−5 and 10^−11 M. The duplicate values were averaged. In either, HTS or CoRe format each compound was tested on at least 3 separate plates using cells from different passages to give an n≧3.

[3] = target: T2, hEP3A/Gqi5 (Homo sapiens, UniProt P43115); assay: FLIPR calcium signal, EP3; settings: HEK-293(EBNA); for EC50: read-out: Ca2+ Signal-EC50 (nM) EP3
T2 construct: expressed in transfected cells
T2 sequence (P43115 1-390): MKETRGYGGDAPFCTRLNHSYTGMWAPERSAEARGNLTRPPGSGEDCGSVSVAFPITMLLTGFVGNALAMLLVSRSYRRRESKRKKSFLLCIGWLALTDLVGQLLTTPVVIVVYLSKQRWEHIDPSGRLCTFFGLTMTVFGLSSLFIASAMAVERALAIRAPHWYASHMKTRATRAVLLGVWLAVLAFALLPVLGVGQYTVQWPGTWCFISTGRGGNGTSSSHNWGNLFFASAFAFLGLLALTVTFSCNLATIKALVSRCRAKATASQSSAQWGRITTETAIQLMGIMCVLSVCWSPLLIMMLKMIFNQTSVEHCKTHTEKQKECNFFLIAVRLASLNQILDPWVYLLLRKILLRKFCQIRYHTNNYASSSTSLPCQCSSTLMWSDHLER
Protocol: as §1, §2, §3, §4

[4] = target: T3, hEP1 (Homo sapiens, UniProt P34995); assay: FLIPR calcium signal, EP1; settings: HEK-293(EBNA)
T3 construct: expressed in transfected cells
T3 sequence (P34995 1-402): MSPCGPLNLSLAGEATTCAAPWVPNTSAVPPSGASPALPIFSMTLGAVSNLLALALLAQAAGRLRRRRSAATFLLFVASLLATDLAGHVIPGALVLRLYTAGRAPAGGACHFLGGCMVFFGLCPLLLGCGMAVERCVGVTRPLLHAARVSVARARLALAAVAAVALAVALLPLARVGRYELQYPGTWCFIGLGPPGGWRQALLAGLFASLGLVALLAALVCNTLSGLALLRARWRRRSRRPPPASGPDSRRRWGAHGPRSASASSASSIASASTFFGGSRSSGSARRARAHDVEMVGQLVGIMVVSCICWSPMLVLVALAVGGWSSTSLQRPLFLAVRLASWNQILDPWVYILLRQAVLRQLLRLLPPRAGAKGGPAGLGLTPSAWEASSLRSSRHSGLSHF
Protocol: as §1, §2, §3, §4

[5] = target: T4, hEP4/Gqs5 (Homo sapiens, UniProt P35408); assay: FLIPR calcium signal, EP4; settings: HEK-293(EBNA); for EC50: read-out: Ca2+ Signal-EC50 (nM) EP4
T4 construct: expressed in transfected cells
T4 sequence (P35408 whole entry): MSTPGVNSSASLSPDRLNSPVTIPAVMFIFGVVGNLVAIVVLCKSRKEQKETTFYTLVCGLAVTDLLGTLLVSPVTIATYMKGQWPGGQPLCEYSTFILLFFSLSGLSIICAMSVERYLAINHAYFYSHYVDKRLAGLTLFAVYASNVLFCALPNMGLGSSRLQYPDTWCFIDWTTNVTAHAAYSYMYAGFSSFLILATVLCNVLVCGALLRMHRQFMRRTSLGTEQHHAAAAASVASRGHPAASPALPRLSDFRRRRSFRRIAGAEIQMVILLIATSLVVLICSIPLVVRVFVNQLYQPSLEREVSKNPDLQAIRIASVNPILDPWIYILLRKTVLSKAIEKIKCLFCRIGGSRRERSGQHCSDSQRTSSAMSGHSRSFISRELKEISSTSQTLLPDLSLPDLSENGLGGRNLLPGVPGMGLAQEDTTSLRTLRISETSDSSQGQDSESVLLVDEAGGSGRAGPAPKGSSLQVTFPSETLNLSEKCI
Protocol: as §1, §2, §3, §4

[6] = target: T5, hTP (Homo sapiens, UniProt P21731); assay: FLIPR calcium signal, TP; settings: HEK-293(EBNA)
T5 construct: expressed in transfected cells
T5 sequence (P21731 1-343): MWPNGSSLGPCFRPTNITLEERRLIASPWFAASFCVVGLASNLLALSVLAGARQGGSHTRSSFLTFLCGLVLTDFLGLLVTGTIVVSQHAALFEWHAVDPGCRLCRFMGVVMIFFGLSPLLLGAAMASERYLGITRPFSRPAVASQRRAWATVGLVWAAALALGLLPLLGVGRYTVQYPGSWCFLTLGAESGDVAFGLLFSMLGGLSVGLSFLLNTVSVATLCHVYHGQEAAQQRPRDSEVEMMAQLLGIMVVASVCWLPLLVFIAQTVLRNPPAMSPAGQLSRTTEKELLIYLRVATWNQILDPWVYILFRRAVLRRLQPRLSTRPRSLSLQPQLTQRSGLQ
Protocol: as §1, §2, §3, §4

EP2, sequence (P43116 whole entry): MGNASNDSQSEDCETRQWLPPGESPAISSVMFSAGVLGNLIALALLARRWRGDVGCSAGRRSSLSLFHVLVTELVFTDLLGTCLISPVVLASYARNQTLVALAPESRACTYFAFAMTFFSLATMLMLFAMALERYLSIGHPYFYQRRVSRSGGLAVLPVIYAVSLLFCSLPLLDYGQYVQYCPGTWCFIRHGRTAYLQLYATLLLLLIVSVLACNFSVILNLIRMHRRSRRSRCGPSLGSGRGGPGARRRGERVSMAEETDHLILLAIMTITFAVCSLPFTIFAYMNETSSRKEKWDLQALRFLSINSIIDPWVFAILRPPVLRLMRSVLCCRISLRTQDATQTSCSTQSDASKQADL

CCCCCC(O)c1ccc([C@@H]2[C@@H](C/C=C\CCCC(=O)O)[C@H](F)C[C@H]2O)cc1 (mixture of isomers) [Entry 8, (Z)-7-{(1R,2S,3R,5R)-5-Fluoro-3-hydroxy-2-[4-(1-hydroxy-hexyl)-phenyl]-cyclopentyl}-hept-5-enoic acid]
EC50 [1]: 8 nM | Ca2+ Signal-EC50 (nM) FP [2]: not active | EC50 [3]: 1450 nM | Ca2+ Signal-EC50 (nM) EP1 [4]: not active | Ca2+ Signal-EC50 (nM) EP4 [5]: not active | Ca2+ Signal-EC50 (nM) TP [6]: not active

CCCCCC(O)c1ccc([C@@H]2[C@@H](C/C=C\CCCC(=O)O)[C@H](Cl)C[C@H]2O)cc1 (mixture of isomers) [Entry 11, (Z)-7-{(1R,2S,3R,5R)-5-Chloro-3-hydroxy-2-[4-(1-hydroxy-hexyl)-phenyl]-cyclopentyl}-hept-5-enoic acid]
EC50 [1]: 3 nM | Ca2+ Signal-EC50 (nM) FP [2]: not active | EC50 [3]: 456 nM | Ca2+ Signal-EC50 (nM) EP1 [4]: not active | EC50 [5]: > 10000 nM | Ca2+ Signal-EC50 (nM) TP [6]: not active

O=C(O)CCC/C=C\C[C@@H]1[C@@H](c2ccc(C(O)CC3CCCCC3)cc2)[C@H](O)C[C@H]1Cl (mixture of isomers) [Entry 17, (Z)-7-{(1R,2S,3R,5R)-5-Chloro-2-[4-(2-cyclohexyl-1-hydroxy-ethyl)-phenyl]-3-hydroxy-cyclopentyl}-hept-5-enoic acid]
EC50 [1]: 495 nM | Ca2+ Signal-EC50 (nM) FP [2]: not active | Ca2+ Signal-EC50 (nM) EP3 [3]: not active | Ca2+ Signal-EC50 (nM) EP1 [4]: not active | Ca2+ Signal-EC50 (nM) EP4 [5]: not active | Ca2+ Signal-EC50 (nM) TP [6]: not active

CC(C)(C)CCCC(O)c1ccc([C@@H]2[C@@H](CCCCCCC(=O)O)[C@H](Cl)C[C@H]2O)cc1 (mixture of isomers) [Entry 20, 7-{(1R,2S,3R,5R)-5-Chloro-3-hydroxy-2-[4-(1-hydroxy-5,5-dimethyl-hexyl)-phenyl]-cyclopentyl}-heptanoic acid]
EC50 [1]: > 10000 nM | Ca2+ Signal-EC50 (nM) FP [2]: not active | EC50 [3]: 4450 nM | Ca2+ Signal-EC50 (nM) EP1 [4]: not active | EC50 [5]: 10700 nM | Ca2+ Signal-EC50 (nM) TP [6]: not active

O=C(O)CCC/C=C\C[C@@H]1[C@@H](c2ccc(C(O)Cc3ccccc3)cc2)[C@H](O)C[C@H]1Cl (mixture of isomers) [Entry 21, (Z)-7-{(1R,2S,3R,5R)-5-Chloro-3-hydroxy-2-[4-(1-hydroxy-2-phenyl-ethyl)-phenyl]-cyclopentyl}-hept-5-enoic acid]
EC50 [1]: 14 nM | Ca2+ Signal-EC50 (nM) FP [2]: not active | Ca2+ Signal-EC50 (nM) EP3 [3]: not active | Ca2+ Signal-EC50 (nM) EP1 [4]: not active | EC50 [5]: > 10000 nM | Ca2+ Signal-EC50 (nM) TP [6]: not active

CCCCC(O)c1ccc([C@@H]2[C@@H](C/C=C\CCCC(=O)O)[C@H](Cl)C[C@H]2O)cc1 (mixture of isomers) [Entry 27, (Z)-7-{(1R,2S,3R,5R)-5-Chloro-3-hydroxy-2-[4-(1-hydroxy-pentyl)-phenyl]-cyclopentyl}-hept-5-enoic acid]
EC50 [1]: 10 nM | Ca2+ Signal-EC50 (nM) FP [2]: not active | Ca2+ Signal-EC50 (nM) EP3 [3]: not active | Ca2+ Signal-EC50 (nM) EP1 [4]: not active | Ca2+ Signal-EC50 (nM) EP4 [5]: not active | Ca2+ Signal-EC50 (nM) TP [6]: not active

CCCCC(O)C(C)(C)c1ccc([C@@H]2[C@@H](C/C=C\CCCC(=O)O)[C@H](Cl)C[C@H]2O)cc1 (mixture of isomers) [Entry 32, (Z)-7-{(1R,2S,3R,5R)-5-Chloro-3-hydroxy-2-[4-(2-hydroxy-1,1-dimethyl-hexyl)-phenyl]-cyclopentyl}-hept-5-enoic acid]
EC50 [1]: 9 nM | Ca2+ Signal-EC50 (nM) FP [2]: not active | EC50 [3]: 2810 nM | Ca2+ Signal-EC50 (nM) EP1 [4]: not active | Ca2+ Signal-EC50 (nM) EP4 [5]: not active | Ca2+ Signal-EC50 (nM) TP [6]: not active

CCCCCC(O)c1ccc([C@@H]2[C@@H](C/C=C\CCCC(=O)O)[C@H](Cl)C[C@H]2O)cc1 (single isomer, unassigned) [Entry 12]
EC50 [1]: 38 nM | Ca2+ Signal-EC50 (nM) FP [2]: not active | Ca2+ Signal-EC50 (nM) EP3 [3]: not active | Ca2+ Signal-EC50 (nM) EP1 [4]: not active | EC50 [5]: > 10000 nM | Ca2+ Signal-EC50 (nM) TP [6]: not active

CCCCCC(O)c1ccc([C@@H]2[C@@H](C/C=C\CCCC(=O)O)[C@H](Cl)C[C@H]2O)cc1 (single isomer, unassigned) [Entry 13]
EC50 [1]: 3 nM | Ca2+ Signal-EC50 (nM) FP [2]: not active | EC50 [3]: 3000 nM | Ca2+ Signal-EC50 (nM) EP1 [4]: not active | EC50 [5]: > 10000 nM | Ca2+ Signal-EC50 (nM) TP [6]: not active

CCCCCC(O)c1ccc([C@@H]2[C@@H](Cc3cccc(CCC(=O)O)c3)[C@H](Cl)C[C@H]2O)cc1 (stereo partly drawn) [Entry 3, 3-(3-{(1R,2S,3R,5R)-5-Chloro-3-hydroxy-2-[4-(1-hydroxy-hexyl)-phenyl]-cyclopentylmethyl}-phenyl)-propionic acid]
EC50 [1]: 56 nM | Ca2+ Signal-EC50 (nM) FP [2]: not active | EC50 [3]: 4670 nM | Ca2+ Signal-EC50 (nM) EP1 [4]: not active | Ca2+ Signal-EC50 (nM) TP [6]: not active
